{"source": "patent US20120201935A1", "about": "“SWEETNESS ENHANCER, SWEETENER COMPOSITIONS, METHODS OF MAKING THE SAME AND CONSUMABLES CONTAINING THE SAME” (NUTRINOVA NUTRITION SPECIALTIES & FOOD INGREDIENTS GMBH, priority 2011, published 2012)", "key": {"[1]": {"test_system": "HEKα15#17 cells (control cell line without sweet receptor)", "assay": "Same calcium assay on the control cell line without sweet receptor", "format": "cell-based", "details": "FIG. 1 grey bars", "experimental": "(§1) For measurement of human T1R2/T1R3 taste receptor dependent activity a control cell line without sweet receptor based on HEK 293 and a cell line expressing the sweet receptor hT1R2/hT1R3 based on HEK 293, respectively, are seeded into assay plates and labelled with the calcium sensitive fluorescence dye Fluo4-AM in a culture medium. The potential modulators, e.g. the test compound, are added to the control cell line and to the cell line expressing the sweet receptor hT1R2/hT1R3, respectively.\n(§2) A stable cell line based on HEK293 was termed HEKα15#17 served as control for functional Gα-protein and a stable cell line HEKGα15#17R2R3b#8 C6 served as cell line expressing the sweet receptor hT1R2/hT1R3 based on HEKGα15#17.\n(§3) The cells were cultured in DMEM/HG and 10% FCS Gold, 4 mM L-Glutamin, 1.3 mg/ml Geneticin (HEKGα15#17) or the same medium additionally containing 6 μg/ml Blasticidin (HEKGα15#17R2R3b#8 C6). The medium for the assay was DMEM/HG (high glucose, 4.5 g/l glucose, Life Technologies) and 10% FCS Gold, 4 mM L-Glutamin (HEKGα15#17) or DMEM/LG (low glucose, 1 g/l glucose; Life Technologies) and 10% FCS Gold (HEKGα15#17R2R3b#8C6), respectively. 1.3 Evaluation of the sweet receptor modulating activity of rosmarinic acid\nIn order to evaluate the sweet receptor modulating activity of rosmarinic acid, rosmarinic acid was added to the cultures in a concentration of 25 μM in a volume of 50 μl. Controls were KH-buffer (Krebs HEPES-buffer: 118 mM NaCl, 4.7 mM KCl, 1.2 mM MgSO4, 1.2 mM KH2PO4, 4.2 mM NaHCO3, 1.3 mM CaCl2, 10 mM Hepes, pH 7.4) either without or with sweetness enhancer.\nFurther controls for function of G-protein and receptor were isoproterenol Sigma Aldrich), ionomycin (1 μM, Calbiochem) and ATP (1 μM, Applichem).\nFor measurement of human T1R2/T1R3 taste receptor dependent activity, on day 1 of the test procedure the HEKα15#17 cells (control cell line without sweet receptor) and the HEKGα15#17R2R3b#8 C6 cells (cell line expressing the sweet receptor hT1R2/hT1R3), respectively, were transferred to low-glucose medium.\nOn day 2 the cells were seeded into assay plates at a density of 25.000 cells/well. Assay plates for fluorescence measurement (black clear bottom 96-cavity plates, Greiner Bio-One) were coated with poly-D-lysine. For direct comparison both cell lines (control cell line without sweet receptor and cell line expressing the sweet receptor hT1R2/hT1R3) were seeded into different cavities of the same assay plate. The plate was placed into the incubator for 48 hours at 37° C., 5% CO2, 100% relative humidity.\nOn day 4 the calcium assay was performed. For this assay, the cells were marked with Fluo4-AM in medium and KH-buffer. To each cavity 100 μl KH-Puffer/250 μM sulfinpyrazone/4 μM Fluo4-AM were added gently to 100 μl medium (final concentration of Fluo4-AM=2 μM, stock solution of Fluo4-AM 1 mM in DMSO, excitation at 485 nm, emission at 520 nm, Fisher Scientific, 58239 Schwerte, Germany).\nThe plate was placed into the incubator for 1 hour. In the mean time the test substances (“ligands”) were prepared in a separate plate (5 times concentrated, 150 μl/cavity, and then automatically 50 μl/cavity were transferred into the screening cell plate by pipetting robot (FLEX-station, Molecular Devices, Sunnyvale, Calif.).\nThe culture medium was carefully removed and 200 μl KH-buffer/250 μM sulfinpyrazone per cavity was added slowly. Cells were left in the FLEX-station for 20 minutes for adaptation, followed by measurement at 37° C.\nIn the bar diagram the grey bars (control—without hT1R2/hT1R3) indicate the measured Fluo4-AM fluorescence increase of the respective test compound added to the control cell line, the black bars (assay—with hT1R2/hT1R3) indicate the measured Fluo4-AM fluorescence increase of the respective test compound added to the cell line expressing the sweet receptor hT1R2/hT1R3."}, "[2]": {"molecular_target": "T1, human taste receptor T1R2/T1R3 (Homo sapiens, UniProt Q7RTX0+Q8TE23)", "T1 construct": "expressed in transfected cells; host or cells: HEK293 stably expressing mouse G-alpha-15 (HEKGα15#17R2R3b#8 C6)", "T1 sequence (Q8TE23 20-839)": "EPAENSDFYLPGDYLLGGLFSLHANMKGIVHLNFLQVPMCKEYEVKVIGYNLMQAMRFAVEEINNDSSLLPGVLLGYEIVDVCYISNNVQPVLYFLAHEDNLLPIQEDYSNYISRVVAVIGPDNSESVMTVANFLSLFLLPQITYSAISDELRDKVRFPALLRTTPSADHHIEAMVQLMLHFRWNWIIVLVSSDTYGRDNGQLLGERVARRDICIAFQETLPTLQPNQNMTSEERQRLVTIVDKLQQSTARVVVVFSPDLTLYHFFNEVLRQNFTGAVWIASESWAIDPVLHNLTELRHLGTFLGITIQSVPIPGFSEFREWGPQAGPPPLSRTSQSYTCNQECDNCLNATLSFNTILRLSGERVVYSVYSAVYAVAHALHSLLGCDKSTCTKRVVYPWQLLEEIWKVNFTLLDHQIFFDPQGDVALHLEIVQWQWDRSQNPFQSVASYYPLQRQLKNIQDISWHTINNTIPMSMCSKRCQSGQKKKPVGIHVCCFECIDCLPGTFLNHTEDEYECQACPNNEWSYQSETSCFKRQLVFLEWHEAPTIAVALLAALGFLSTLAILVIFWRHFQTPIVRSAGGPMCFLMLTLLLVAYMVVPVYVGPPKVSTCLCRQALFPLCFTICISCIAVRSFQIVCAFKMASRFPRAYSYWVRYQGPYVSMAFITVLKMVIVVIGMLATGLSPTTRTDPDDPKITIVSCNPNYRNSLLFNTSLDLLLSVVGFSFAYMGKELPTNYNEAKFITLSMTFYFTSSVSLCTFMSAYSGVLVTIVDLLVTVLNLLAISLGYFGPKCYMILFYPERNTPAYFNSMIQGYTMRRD", "T1 sequence (Q7RTX0 21-852)": "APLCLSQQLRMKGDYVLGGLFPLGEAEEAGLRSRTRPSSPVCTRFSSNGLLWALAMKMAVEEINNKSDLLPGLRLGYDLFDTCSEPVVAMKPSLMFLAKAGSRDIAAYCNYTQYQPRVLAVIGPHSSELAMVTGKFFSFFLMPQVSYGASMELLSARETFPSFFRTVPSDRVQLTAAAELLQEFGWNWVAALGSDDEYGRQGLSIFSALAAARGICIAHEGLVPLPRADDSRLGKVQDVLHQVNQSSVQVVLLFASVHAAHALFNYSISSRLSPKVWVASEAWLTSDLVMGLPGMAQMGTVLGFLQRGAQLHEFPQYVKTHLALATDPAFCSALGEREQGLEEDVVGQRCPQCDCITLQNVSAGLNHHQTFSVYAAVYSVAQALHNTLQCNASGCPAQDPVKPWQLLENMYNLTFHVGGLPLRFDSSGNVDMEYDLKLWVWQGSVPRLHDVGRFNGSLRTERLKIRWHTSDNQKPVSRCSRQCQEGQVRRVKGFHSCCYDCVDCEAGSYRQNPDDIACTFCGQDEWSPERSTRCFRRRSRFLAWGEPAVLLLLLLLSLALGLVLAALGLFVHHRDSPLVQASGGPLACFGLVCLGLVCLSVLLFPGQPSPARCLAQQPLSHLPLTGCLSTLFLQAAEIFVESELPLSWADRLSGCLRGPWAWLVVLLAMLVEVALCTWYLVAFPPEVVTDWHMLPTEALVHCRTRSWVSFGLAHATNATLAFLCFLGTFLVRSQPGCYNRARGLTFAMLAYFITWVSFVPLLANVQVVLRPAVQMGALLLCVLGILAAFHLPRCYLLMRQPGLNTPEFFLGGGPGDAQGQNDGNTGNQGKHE", "assay": "Recombinant human taste receptor T1R2/T1R3 dependent cell based calcium assay (Fluo4-AM), cell line expressing the sweet receptor", "experimental": "as §1, §2\nas §3, with “1.3 Evaluation of the sweet receptor modulating activity of rosmarinic acid” left out\nOn day 2 the cells were seeded into assay plates at a density of 25.000 cells/well. Assay plates for fluorescence measurement (black clear bottom 96-cavity plates, Greiner Bio-One) were coated with poly-D-lysine. […]"}, "[3]": {"assay": "Taste and spit assay with a panel of trained sensory evaluators", "format": "in vivo, human", "details": "5 panelists", "from_the_text": "The taste of a sample of a compound, e.g. rosmarinic acid, with regard to sweetness and/or sweetness enhancing properties, in other embodiments, may be assessed in vivo by using a panel of trained sensory evaluators experienced in the sweet taste estimation procedure, e.g. in the taste and spit assay as described e.g. in Example 2.\n(§4) In these cases, panelists are asked to take a sample of the liquid to be assessed (test substance, e.g. rosmarinic acid) into the mouth and after some time allowed for taste perception to spit the sample out completely. Subsequently, the panelists are asked to rinse their mouth well with water or black tea to reduce any potential carry over effects. The tasting of a sample can be repeated if required.\nIn a first descriptive test (qualitative assessment for sweetness) the panelists are asked to taste the quality of single samples (maximum 3 subsequent samples). The individuals of the taste panel are asked to answer the following questions with regard to the quality of taste: 1) does the sample taste sweet?. 2) is there another taste detectable (bitter, sour, salty, umami)?. 3) is there an off- or aftertaste?. 4) is there anything else remarkable about the perception of the sample?\nIn the next step (assessment of sweetness enhancing, e.g. fructose enhancing, features) the panelists are asked to answer questions in a pairwise comparison test to determine the enhancement of sweet taste of the test substance with fructose relative to fructose only. Again the panelists are given samples. Two samples are prepared for direct comparison regarding sweetness. One sample contains fructose in a solvent and the other sample additionally contains the test substance. Designation of the samples with A and B is randomized and is decoded after the taste procedure. The questions to be answered are: 1) does one sample taste sweeter than the other?, 2) if so, which one?, 3) are there any other differences in the taste between the two samples? The result of the taste and spit assay is a qualitative evaluation of the differences between the two samples.\nThe taste of a sample of rosmarinic acid with regard to sweetness and fructose enhancing features was assessed by using a panel of trained sensory evaluators experienced in the sweet taste estimation procedure. 5 individuals were asked to taste the quality of single samples of 10 ml volume.\nas §4, with “Panelists were” for “In these cases, panelists are”, “(20 μM test substance” for “(test substance, e.g.”, “acid in 0.5% ethanol)” for “acid)”, “were” for “are”, “could” for “can”, “required. […]” for “required.”"}, "[4]": {"details": "test compound without added enhancer/fructose, sodium cyclamate 30 mM, ATP 1 μM, ionomycin 1 μM, fructose 20 mM, rosmarinic acid 25 μM"}, "[5]": {"details": "20 μM with 4% fructose in 0.5% ethanol"}}, "note": "Entries after “also recorded” stand apart in the source; their conditions may differ.", "data": [{"smiles": "Nc1ncnc2c1ncn2[C@@H]1O[C@H](COP(=O)(O)OP(=O)(O)OP(=O)(O)O)[C@@H](O)[C@H]1O", "note": "[ATP]", "values": [{"measurement": "Fluo4-AM fluorescence increase (activation) of the control cell line", "setting": "[1]; [4]", "result": "activate"}]}, {"smiles": "C[C@H](CCC(=O)O)C[C@H](C)C[C@H](C)C(=O)/C=C(\\O)[C@H](C)C[C@H](C)C/C=C/[C@@H](C)[C@@H](O)[C@@H](C)[C@@H](O)C[C@@H]1CC[C@@](C)([C@H]2CC[C@@](C)([C@@H](C)O)O2)O1", "note": "[ionomycin]", "values": [{"measurement": "Fluo4-AM fluorescence increase (activation) of the control cell line", "setting": "[1]; [4]", "result": "activate"}]}, {"smiles": "CC(C)NCC(O)c1ccc(O)c(O)c1", "note": "(stereo not shown) [isoproterenol]", "values": [{"measurement": "Fluo4-AM fluorescence increase (activation) of the control cell line", "setting": "[1]; [4]", "result": "activate"}]}, {"smiles": "O=C(/C=C/c1ccc(O)c(O)c1)O[C@H](Cc1ccc(O)c(O)c1)C(=O)O", "note": "[rosmarinic acid]", "values": [{"measurement": "Time response in the cell assay", "setting": "[2]; measured over ca. 1.5 minutes (86 seconds), FIG. 2", "result": "selective stimulation of receptor carrying cells"}, {"measurement": "Fructose enhancing activity in the cell based in vitro assay", "setting": "[2]; rosmarinic acid in the presence of fructose", "result": "acting as a fructose enhancer; also recorded: enhances the activity of fructose; also recorded: acts as a fructose enhancer"}, {"measurement": "Fluo4-AM fluorescence increase (activation) of the control cell line", "setting": "[1]; rosmarinic acid 25 μM in the presence of fructose (20 mM)", "result": "does not activate"}, {"measurement": "Fluo4-AM fluorescence increase (activation) of the control cell line", "setting": "[1]; [4]", "result": "does not activate"}, {"measurement": "Off-taste or other taste (Phase I qualitative assessment)", "setting": "[3]; 20 μM in 0.5% ethanol, 10 ml", "result": "No off-taste or any other taste than sweetness was detected"}, {"measurement": "Taste quality of the single sample (Phase I qualitative assessment)", "setting": "[3]; 20 μM in 0.5% ethanol, 10 ml, ambient temperature", "result": "no characteristic intrinsic taste"}, {"measurement": "Panelists identifying the sample with 4% fructose plus test substance as sweeter than 4% fructose only (Phase II pairwise comparison)", "setting": "[3]; [5]", "result": "four"}, {"measurement": "Panelists tasting no difference between the two samples (Phase II pairwise comparison)", "setting": "[3]; [5]", "result": "One"}]}, {"smiles": "O=C(CO)[C@@H](O)[C@H](O)[C@H](O)CO", "note": "[fructose]", "values": [{"measurement": "Fluo4-AM fluorescence increase (activation) of the control cell line", "setting": "[1]; [4]", "result": "does neither activate"}]}, {"smiles": "O=S(=O)([O-])NC1CCCCC1.[Na+]", "note": "[sodium cyclamate]", "values": [{"measurement": "Fluo4-AM fluorescence increase (activation) of the control cell line", "setting": "[1]; [4]", "result": "does not activate"}]}]}
